In patent US9221810B2, “Substituted bicyclic aromatic compounds as S-nitrosoglutathione reductase inhibitors” (Nivalis Therapeutics, Inc., priority 2010, dated 2015):

Key:
[1] = system: mouse model of ovalbumin (OVA)-induced asthma; test: Mouse model of ovalbumin (OVA)-induced asthma: MCh-induced AHR (Penh) and eosinophil infiltrate in BALF; format: in vivo; conditions: three oral doses of 10 mg/kg at 48 h, 24 h, and 1 h prior to assessment; p<0.05
Method: A mouse model of ovalbumin (OVA)-induced asthma was used to screen GSNOR inhibitors for efficacy against methacholine (MCh)-induced bronchoconstriction/airway hyper-responsiveness. This is a widely used and well characterized model that presents with an acute, allergic asthma phenotype with similarities to human asthma. Efficacy of GSNOR inhibitors was assessed using a protocol in which GSNOR inhibitors were administered after OVA sensitization and airway challenge, and prior to challenge with MCh. Bronchoconstriction in response to challenge with increasing doses of MCh was assessed using whole body plethysmography (Penh; Buxco). The amount of eosinophil infiltrate into the bronchoaveolar lavage fluid (BALF) was also determined as a measure of lung inflammation. The effects of GSNOR inhibitors were compared to vehicles and to Combivent (inhaled; IH) as the positive control.
OVA (500 μg/ml) in PBS was mixed with equal volumes of 10% (w/v) aluminum potassium sulfate in distilled water and incubated for 60 min. at room temperature after adjustment to pH 6.5 using 10 N NaOH. After centrifugation at 750×g for 5 min, the OVA/alum pellet was resuspended to the original volume in distilled water. Mice received an intraperitoneal (IP) injection of 100 μg OVA (0.2 mL of 500 μg/mL in normal saline) complexed with alum on day 0. Mice were anesthetized by IP injection of a 0.2-mL mixture of ketamine and xylazine (0.44 and 6.3 mg/mL, respectively) in normal saline and were placed on a board in the supine position. Two hundred fifty micrograms (100 μl of a 2.5 mg/ml) of OVA (on day 8) and 125 μg (50 μl of 2.5 mg/ml) OVA (on days 15, 18, and 21) were placed on the back of the tongue of each animal.
In vivo airway responsiveness to methacholine was measured 24 h after the last OVA challenge in conscious, freely moving, spontaneously breathing mice with whole body plethysmography using a Buxco chamber (Wilmington, N.C.). […] The degree of bronchoconstriction was expressed as enhanced pause (Penh), a calculated dimensionless value, which correlates with the measurement of airway resistance, impedance, and intrapleural pressure in the same mouse. Penh readings were taken and averaged for 4 min. after each nebulization challenge. Penh is calculated as follows: Penh=[(Te/Tr−1)×(PEF/PIF)], where Te is expiration time, Tr is relaxation time, PEF is peak expiratory flow, and PIF is peak inspiratory flow×0.67 coefficient. […]
After measurement of airway hyper-reactivity, the mice were exsanguinated by cardiac puncture, and then BALF was collected from either both lungs or from the right lung after tying off the left lung at the mainstem bronchus. Total BALF cells were counted from a 0.05 mL aliquot, and the remaining fluid was centrifuged at 200×g for 10 min at 4° C. […]

[2] = system: cigarette smoke-induced COPD (acute 4 day); test: Acute (4 day) cigarette smoke exposure COPD model; format: in vivo, female C57Bl/6 mice
Method: The efficacy of GSNOR inhibitors was assessed in a mouse model of chronic obstructive pulmonary disease (COPD) induced by short duration (4 days or 11 days) of exposure to cigarette smoke. Infiltration of inflammatory cells into the bronchoalveolar lavage fluid (BALF) and BALF levels of chemokines involved in inflammation and tissue turnover/repair were measured to assess the influences of GSNOR inhibitors on some of the early events associated with the initiation and progression of COPD.
Efficacy of GSNOR inhibitors against COPD was explored using acute (4 day) and subchronic (11 day) models of cigarette smoke-induced COPD in mice. […] In animal models, changes in lung pathology are only evident after extended (several months) duration of exposure to cigarette smoke, thus making chronic models prohibitive as effective screening tools. More recently, models exploring inflammatory responses after short duration (2 weeks or less) of smoke exposure in mice have been utilized as tools for screening efficacy and mechanisms of action of novel therapeutics against COPD. The key roles of inflammation in the initiation and progression of COPD, make these short duration models relevant for initial tests of efficacy of novel therapeutics.
Acute (4 Day) Smoke Exposure Model: Female C57Bl/6 mice (N=8 per group) were exposed to cigarette smoke using a whole body exposure chamber. Mice were exposed daily for 4 consecutive days to 4 cycles of smoke from 6 sequential cigarettes (Kentucky 3R4F without filter) with a 30 minute smoke free interval between cycles. GSNOR inhibitors were administered daily via oral dosing at 10 mg/kg/day for 7 days starting 2 days prior to smoke exposure and continuing 1 day post-exposure. The effects of GSNOR inhibitors were assessed by quantitating the numbers of total cells, leukocytes, and leukocytes differentials in the BALF via light microscopy and the levels of BALF chemokines via ELISA at approximately 24 h after the last smoke exposure. The effect of GSNOR inhibitors were compared to vehicle treated controls. The PDE4 inhibitor, roflumilast, was used as the positive control for the study. A group of naïve mice (N=8) was exposed to air and used as a negative control for the study.

[3] = oral 10 mg/kg/day for 7 days, vs vehicle treated controls, p<0.05

Compound	decrease of eosinophil infiltration in BAL [1]	BALF chemokines ([2]; acute 4 day smoke model)	effects compared to roflumilast (positive control) ([2]; acute 4 day smoke model)	decrease of eosinophils in BALF [2, 3] [%]	decrease of leukocytes in BALF [2, 3] [%]	decrease of macrophages in BALF [2, 3] [%]	decrease of neutrophils in BALF [2, 3] [%]	decrease of total cells in BALF [2, 3] [%]
O=C(O)c1ccc(-c2ccc3cc(O)ccc3n2)c(Cl)c1 [Example 8, 3-chloro-4-(6-hydroxyquinolin-2-yl)benzoic acid]	37 % of vehicle control	–	–	–	–	–	–	–
O=C(O)c1ccc(-c2ccc3cc(O)ccc3n2)cc1 [Example 3, 4-(6-hydroxyquinolin-2-yl)benzoic acid]	42 % of vehicle control	restored BALF chemokines towards levels observed in naïve mice	comparable to or greater than those observed for roflumilast	95	80	75	84	66
